Columns and labels:
[1] = test system: patients with pain associated with IBS
From the text: Ten Caucasian pre-menopausal women with IBS participated in the study. The mean age was 33 (±4) years. All participants completed a GI symptom questionnaire and received a physical examination by an experienced gastroenterologist. The diagnosis of IBS was made based on the ROME II criteria and exclusion of organic disease (Thompson et al., 1999). All the patients had diarrhea-predominant IBS and had symptoms for at least 5 years. All of the IBS patients were carefully screened to verify that each patient had no clinical criteria for fibromyalgia or chronic pain condition.
All subjects were asked to fast for 12 hours and self-administer one Fleets® enema (CB Fleet Co., Inc., Lynchberg, Va.) at least two hours prior to arriving for the experimental procedures. […] A validated visual analogue scale was used to measure the subjects' perceived pain (Price, 1994).
A one-hour NH condition preceded either the RL or RP administration in both sessions. Thus, patients rated their rectal pain for one hour at 15-minute intervals before injection of the rectal agent (NH) and 15 min, 30 min, 45 min, 1 hour, 2 hours, 4 hours, and 6 hours afterwards. Both agents were applied through a plastic syringe.
The pain rating at each post-treatment time point was subtracted from the baseline rating to create a pain intensity difference score (PID) for each post-treatment time point of each patient. […]

[2] = test system: patient with bowel pain associated with menses; conditions: open injection at 4 hours after the placebo saline administration
Method: The patients were greeted in a waiting room, escorted to an examination room, and introduced to the study. […] A one-hour NH condition preceded either the RL or RP administration in both sessions. Thus, patients rated their rectal pain for one hour at 15-minute intervals before injection of the rectal agent (NH) and 15 min, 30 min, 45 min, 1 hour, 2 hours, 4 hours, and 6 hours afterwards. Both agents were applied through a plastic syringe. […] After all of the sessions were completed, the patients were debriefed.

Compound: CCN(CC)CC(=O)Nc1c(C)cccc1C [lidocaine]
- duration of pain ameliorating effect in IBS patients [1]: at least 4 hours
- effect of open injection on bowel pain [2]: reversed bowel pain

Source: patent publication US20040142968A1, “Method and kit for treating lower bowel pain” (priority 2003, published 2004)
